The conditions of data set [1]: rats, 6% punicalagin diet for 37 days; cited from earlier work.
In data set [2] the target is T1, PAR2 (Homo sapiens, UniProt P55085).
T1 sequence (P55085 26-397): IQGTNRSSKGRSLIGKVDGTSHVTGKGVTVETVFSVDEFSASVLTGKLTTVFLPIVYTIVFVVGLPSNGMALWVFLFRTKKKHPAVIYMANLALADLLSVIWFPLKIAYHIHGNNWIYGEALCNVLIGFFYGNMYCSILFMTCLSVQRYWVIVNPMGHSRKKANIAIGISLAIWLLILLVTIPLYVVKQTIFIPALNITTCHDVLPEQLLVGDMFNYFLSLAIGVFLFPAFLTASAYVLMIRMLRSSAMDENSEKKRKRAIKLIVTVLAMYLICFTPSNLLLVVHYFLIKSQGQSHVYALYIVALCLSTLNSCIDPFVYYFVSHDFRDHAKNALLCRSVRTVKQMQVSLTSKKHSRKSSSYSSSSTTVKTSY
In words: Specificity: intracellular calcium increase by trypsin, PAR1-AP, thrombin and ATP in HT-29 cells. It is filed as cell-based. Set-up: endogenous in cells; host or cells: HT-29 colon cancer cells. On the procedure:
After colon cancer cells (HT-29) were cultured for 48 hours in a 96-well micro plate with the RPMI1640 culture medium, the culture medium was removed, and then, 100 μL of the Flou4-NW dye mixture was added. While blocking the light, it was stabilized for 1 hour such that a calcium ion dye (Ca^2+ dye) was loaded into the cells. Next, punicalagin was pretreated by concentration (0, 0.3, 1, 3, 10, 30, and 100 μM) for 10 minutes, and by treating 100 nM trypsin, it was measured for about 70 seconds at 1-second intervals to determine whether the concentration changes of intracellular calcium ions by PAR2 activation were an inhibitory effect by punicalagin (panel A of FIG. 2). In the same manner as the above, after punicalagin was pretreated by concentration (0, 1, 3, 10, 30, 100, and 300 μM), by treating 100 μM PAR1-AP (panel B of FIG. 2), 10 unit/mL thrombin (panel C of FIG. 2), and 100 μM ATP (panel D of FIG. 2), the concentration changes in intracellular calcium ions were measured for 70 seconds at 1-second intervals in each case.
In addition, it was compared how much it inhibited an increase in the concentration of intracellular calcium ions by trypsin, PAR1-AP, PAR2-AP, thrombin, and ATP depending on the concentration of punicalagin.

Data set [3] has as its system SD rats with colitis induced by TNBS. In words: Colitis induced by trinitrobenzene sulfonic acid (TNBS) in rats. The class given is in vivo. The settings on record: 1, 3 and 10 mg/kg intraperitoneally for 3 days. As for the experimental part:
Specifically, 80 mg/kg TNBS was diluted in 50% ethanol and injected into the anus of rats, and punicalagin (1, 3, and 10 mg/kg) was intraperitoneally injected for 3 days. As control groups, a group which was intraperitoneally injected with PBS and treated with 50% ethanol only (n=3) and a group which was intraperitoneally injected with PBS and was treated only with TNBS (n=3) were established, and weight change was measured. After 3 days, the rats of each group were sacrificed, the colon was extracted to measure the length, and the spleen was extracted and weighed.

The subject of data set [4] is SD rats with acute pancreatitis induced by caerulein. In words: Acute pancreatitis induced by caerulein in rats. The class given is in vivo. On the procedure: In 6-week-old SD rats, it was confirmed whether punicalagin has an effect of alleviating symptoms of acute pancreatitis induced by caerulein.
Specifically, […], and after 30 minutes, 40 μg/kg of caerulein, which is an acute pancreatitis-inducing substance, was intraperitoneally injected, and then, after 2 hours, the pancreas of the experimental animals was extracted and analyzed.
First, the weight of the extracted pancreas was measured to determine whether punicalagin inhibits edema, which is a symptom of acute pancreatitis. As a result, it was confirmed that when 10 mg/kg punicalagin was administered to […], in which acute pancreatitis was induced by caerulein, the edema of the pancreas was inhibited by 95% or more (panel A of FIG. 8).
Next, as a result of observing the nucleus and cytoplasm of the extracted pancreatic tissue with a microscope through H&E staining in order to confirm the damage to pancreatic cells by caerulein, it was confirmed that in the rats administered with caerulein, the distance between pancreatic cells was increased and the cells were damaged due to symptoms of acute pancreatitis.

For data set [5], the target named is T1, PAR2. In words: Increase of intracellular calcium ions by PAR2-AP in HT-29 cells (Fluo4-NW). The settings on record: HT-29 cells. Set-up: endogenous in cells; host or cells: HT-29 colon cancer cells. The class given is cell-based. As for the experimental part: After colon cancer cells (HT-29) were cultured for 48 hours in a 96-well micro plate with the RPMI1640 culture medium, the culture medium was removed, and then, 100 μL of the Flou4-NW dye mixture was added. While blocking the light, it was stabilized for 1 hour such that a calcium ion dye (Ca^2+ dye) was loaded into the cells. Next, after treating punicalin (0, 3, 10, and 30 μM), punicalagin (0, 0.3, 1, 2, 3, and 10 μM), or ellagic acid (0, 30, and 100 μM) for 10 minutes by concentration, each well was treated with 30 μM PAR2-AP (PAR2-activating peptide, SLIGRL-NH2) to measure the concentration change in intracellular calcium ions.
(Calcium assays in cells follow changes in intracellular calcium, usually with a dye or a luminescent sensor.)

For data set [6], the target named is T1, PAR2. In words: Cytokine secretion by PAR2-AP in primary cultured human conjunctival epithelial cells (ELISA). It is filed as cell-based. Also on record: endogenous in cells. The settings on record: 10 μM, 100 μM PAR2-AP, 24 hours. As for the experimental part: In order to determine whether punicalagin inhibits cytokine secretion by PAR2 receptor activity, human conjunctival epithelial cells, which were primary cultured and differentiated in a transwell, were treated with 100 μM PAR2-AP or 10 μM punicalagin for 24 hours, and then, by collecting the culture medium from the apical membrane, cytokine concentrations were measured by the enzyme-linked immunosorbent assay.
(An ELISA detects its analyte on a solid surface through an enzyme-linked reagent.)

Usually IC50 stands for the concentration needed to halve the response being measured. As to `O=CC1OC(=O)c2cc(O)c(O)c(O)c2-c2c(cc(O)c(O)c2O)C(=O)OC1C1OC(=O)c2cc(O)c(O)c(O)c2-c2c(O)c(O)c3oc(=O)c4c(c(O)c(O)c5oc(=O)c2c3c54)-c2c(cc(O)c(O)c2O)C(=O)OCC1O` (stereo not shown) [punicalagin, 1,2,3,11,12,13-hexahydroxy-5,10-dioxo-8-[3,4,5,11,17,18,19,22,23,34,35-undecahydroxy-8,14,26,31-tetraoxo-9,13,25,32-tetraoxaheptacyclo[25.8.0.0^2,7.0^15,20.0^21,30.0^24,29.0^28,33]pentatnaconta-1(35),2,4,6,15,17,19,21,23,27,29,33-dodecaen-10-yl]-5,7,8,10-tetrahydrodibenzo[f,h][1,4]dioxecin-7-carbaldehyde], the toxicity result in data set [1] is listed as “no toxicity”. The “inhibition of increase in concentration of intracellular calcium ions” value at PAR2 [2] (100 nM trypsin, 100 μM PAR1-AP, 10 unit/mL thrombin or 100 μM ATP, increasing punicalagin concentration) is reported as “effect of inhibiting an increase in the concentration of calcium ions was also improved”. Further, the “selectivity for inhibition of PAR2 activity compared to ATP, thrombin, and PAR1-AP” value at PAR2 [2] (calcium increase) is reported as no less than 10 times. In data set [3], the “colon tissue damage caused by TNBS” value is “inhibited colon tissue damage caused by TNBS in a concentration-dependent manner” and the “concentrations of inflammatory cytokines (INF-γ, IL-2, IL-4, IL-6, IL-β, TNF-α, IL-1β, etc.) increased by TNBS” value was “significantly decreased”. In data set [3] (concentration-dependent), the “colon length reduction by TNBS” value is recorded as “significantly inhibited”, the “weight increase of the spleen by TNBS” value was “significantly inhibited” and the “weight loss by TNBS” value is on record as “significantly inhibited”. The “inhibition of edema of the pancreas (pancreas weight)” value in data set [4] (10 mg/kg, 30 minutes before 40 μg/kg caerulein, pancreas extracted after 2 hours) is reported as no less than 95%. The “edema of the pancreas and cell damage (H&E staining)” value in data set [4] (pretreated at 3 mg/kg, then caerulein) is “strongly inhibited”. In addition, in data set [4] (rat, in vivo), the “concentrations of inflammatory cytokines (INF-γ, IL-2, IL-4, IL-6, IL-β, TNF-α, IL-1β, etc.) increased by caerulein” value was “significantly decreased”. In addition, at PAR2 [5] (30 μM PAR2-AP, 10 minutes pretreatment, read-out: IC50, inhibition of the PAR2 receptor (intracellular calcium increase by PAR2-AP)), the IC50 was found to be 1450 nM. Moreover, on PAR2 [5] (PAR2-AP), the “strength of PAR2 receptor inhibition compared to punicalin” value is recorded as no less than 10 times. Besides, on PAR2 [6], the “inhibition of GMCSF induced by PAR2-AP” value turned out to be 66.8%, the “inhibition of interleukin-6 (IL-6) induced by PAR2-AP” value came out at 59.5% and the “inhibition of interleukin-8 (IL-8) induced by PAR2-AP” value is on record as 61.6%.

These data come from patent US11957699B2, “Composition comprising punicalagin for inhibiting PAR2 activity” (INDUSTRY-ACADEMIC COOPERATION FOUNDATION, YONSEI UNIVERSITY, priority 2018, dated 2024).
